The results in this text go back to US20240216412A1, “OXIDIZED NICOTINAMIDE ADENINE DINUCLEOTIDE (NAD+) PRECURSOR TREATMENT FOR HEART FAILURE ALLEVIATION INDEPENDENT OF MITOCHONDRIAL PROTEIN DEACETYLATION” (University of Washington, priority 2022, published 2024).

Structures are written as SMILES.

Common to all, as to assay type: in vivo, mouse
Assay [1] concerns Complex I, Cytochrome C Oxidase, Citrate synthase. The experiment in a line: Electron transport chain enzyme activities in heart homogenates. The settings on record: TAC hearts, Sirt3Ko and WT heart lysate. The procedure: Enzyme Activities. Citrate synthase (CS), Complex I (CI) and Cytochrome C Oxidase (CIV), and Mrpp2 dehydrogenase activities were determined in heart tissue homogenates at 30° C. using a protocol adapted from previously published methods (Spinazzi et al., 2012). Briefly, for CS activity frozen cardiac tissue (25 mg) was homogenized at 4° C. in CelLytic™ MT Cell Lysis Reagent (C3228) and then incubated on ice for 30 minutes. The samples were then centrifuged at 10,000×g for 10 minutes at 4° C. and protein concentration determined. CS activity was analyzed in 100 mM Tris buffer containing 0.1% Triton X-100, pH 8.0 as previously described (Spinazzi et al., 2012). For CIV activity, 25 mg of cardiac tissue was homogenized at 4° C. in 50 mM potassium phosphate buffer containing 1 mM EDTA, and 0.1% Triton X-100 (pH 7.4; final concentration, 5 mg tissue/mL). The samples were incubated on ice for 30 minutes followed by centrifugation at 10,000×g for 10 minutes at 4° C. CIV activity was analyzed in 100 mM potassium phosphate buffer as previously described (Spinazzi et al., 2012). For Cl activity, 25 mg of cardiac tissue was homogenized at 4° C. in 50 mM potassium phosphate buffer containing 1 mM EDTA, and 0.1% Triton X-100 (pH 7.4; final concentration, 5 mg tissue/mL). The samples were incubated on ice for 30 minutes followed by centrifugation at 10,000×g for 10 minutes at 4° C. Cl activity was analyzed in 100 mM potassium phosphate buffer as previously described (Spinazzi et al., 2012). In parallel, a separate reactions containing the same quantity of reagents and sample but with the addition of 10 μl of 1 mM rotenone solution. The reactions were started by adding 6 μl of ubiquinone (10 mM), mix and follow the decrease of absorbance at 340 nm for 2 min. The dehydrogenase activity of Mrpp2 was measured as described (Falk et al., 2016) in the reverse direction for reduction of acetoacetyl-CoA (30 mM) to L-3-hydroxyacyl-CoA. The reaction was monitored as the decrease of absorbance at 340 nm.

In another assay the test system is cardiac mitochondria. The experiment in a line: Isolated cardiac mitochondria respiration (oxygen electrode). The settings on record: both genotypes. The procedure:
Mitochondrial Isolation from cardiac tissue. Hearts were excised from mice, the aortas and atria were removed. Heart tissues were rinsed briefly in ice-cold mitochondria isolation medium (MIM) (70 mM sucrose, 220 mM mannitol, 5 mM MOPS, 1 mM EDTA, 0.025% fatty acid-free BSA, pH 7.4 with 5M KOH) to remove residual blood. Tissues were minced on ice and resuspended in fresh MIM, followed by trypsin digestion (10 ug/ml) and incubated on ice for 10 min. Trypsin digestion was stopped by the addition of trypsin inhibitor (0.5 mg/ml) and additional BSA (1 mg/ml) to MIM. The tissue pellets were resuspended in fresh MIM containing 1 mg/ml BSA, and transferred to a Teflon-glass tube and homogenized on ice with a Teflon pestle. The homogenates were centrifuged for 10 min at 800×g at 4° C. The supernatants were collected and centrifuged for 10 min at 8,000×g at 4° C. The supernatant was discarded and the mitochondrial pellets were resuspended in MIM to wash. The resuspension was centrifuged for 10 min at 8,000×g at 4° C., and the supernatant discarded. The mitochondrial pellet was resuspended to a concentrated volume for protein quantification by BCA Assay (Pierce).
Mitochondrial respirations. Isolated mitochondria respiration experiments were performed in an Clark type oxygen electrode Oxytherm System (Hansatech Instruments) at 30C. Briefly, freshly isolated mitochondria were added to respiration buffer (125 mM KCl, 20 mM HEPES, 3 mM MgCl2, 400 μM EGTA, 5 mM KH2PO4, 0.2% BSA (fatty acid free), pH 7.2) and placed in the respiration chamber to measure baseline respiration (State 1). The change in oxygen levels following the immediate addition of substrates (pyruvate/malate (5 mM/2 mM) or palmitoylcarnitine/malate (50 μM/2 mM) (State 2) followed by the sequential addition of 2.5 mM ADP (State 3), […] Oligomycin (State 4p) and 1 μM FCCP (FCCP Max). Antimycin A (2.5 μM) was added last to measure the residual oxygen consumption not accounted for by the electron transfer chain and it was subtracted from the previous measurements.

For assay [2], the system named is fatty acid oxidation (acylcarnitines) in heart. In words: Cardiac acyl-carnitine profiling (LC/MS). The procedure:
Cardiac acyl-carnitines. Metabolites were extracted from frozen heart tissue (10 mg) by precipitating in 80:20% methanol:water following the addition of 1 ug/ml internal standard (C16 palmitoylcarnitine, d3, Cambridge Isotope Laboratories, Inc.). After centrifugation, the supernatant was transferred to LC/MS auto sampler vials (Thermo Fisher). The protein pellet was redissolved in 0.1 M NaOH and protein concentration measured for normalization.
Acyl-carnitines were analyzed using a Triple TOF—5600 (AB Sciex) series mass spectrometer in line with a Water Acquity I-class UPLC. Chromatographic separation was achieved using an Acquity UPLC BEH HILIC, 1.7 micron, 2.1×100 mm column (Waters) with a flow rate of 0.5 ml/min. Total run time was 22 minutes. The mobile phase was composed of two solvents: A=5 mM Ammonium Acetate in 95:5 acetonitrile:water and B=5 mM Ammonium Acetate in 50:50 acetonitrile:water using the following gradient.
Samples were analyzed in positive electrospray ionization (ESI+) with a mass range from 50-1000 Da. […] Additional acyl-carnitines were identified by their m/z value as compared to theoretical values determined by the molecular formula ±0.003 D. Peak areas intensities were normalized to protein concentration.

Take `NC(=O)c1ccc[n+]([C@@H]2O[C@H](CO)[C@@H](O)[C@H]2O)c1` [NR, Nicotinamide riboside chloride]: in assay [1], the “Activity of citrate synthase” value is listed as “no change”, the “Activity of complex I” value was “restored” and the “Activity of cytochrome c oxidase (COIV)” value is reported as “restored”. For the same compound, the “Mitochondrial respiratory function (State 3 respiration)” value in the assay on cardiac mitochondria (TAC, Complex I substrates) is “improved”. For the same compound, the “Palmitoylcarnitine (PLC) supported State 3 respiration (ADP stimulated)” value in the assay with cardiac mitochondria (cardiac mitochondria from ISO treated hearts, NR) is “restored”. Moreover, the “Tissue content of lipid derived acylcarnitines and hydroxy-acylcarnitines” value in assay [2] (NR treated TAC hearts, to level similar to WT-Sham) is reported as “increased”. For the same compound, the “C16 (palmitoylcarnitine) levels” value in assay [2] (WT and Sirt3ko NR treated TAC hearts vs vehicle) is reported as “increased”.
